Consider 28 compounds from patent publication US12195490B2, “STRAD-binding agents and uses thereof” (The Regents of the University of California, priority 2020, dated 2025).

SMILES strings stand for the structures.

The assay has as its target T1, LKB1 (Homo sapiens, UniProt Q15831+Q7RTN6).
T1 sequence (Q15831 1-433): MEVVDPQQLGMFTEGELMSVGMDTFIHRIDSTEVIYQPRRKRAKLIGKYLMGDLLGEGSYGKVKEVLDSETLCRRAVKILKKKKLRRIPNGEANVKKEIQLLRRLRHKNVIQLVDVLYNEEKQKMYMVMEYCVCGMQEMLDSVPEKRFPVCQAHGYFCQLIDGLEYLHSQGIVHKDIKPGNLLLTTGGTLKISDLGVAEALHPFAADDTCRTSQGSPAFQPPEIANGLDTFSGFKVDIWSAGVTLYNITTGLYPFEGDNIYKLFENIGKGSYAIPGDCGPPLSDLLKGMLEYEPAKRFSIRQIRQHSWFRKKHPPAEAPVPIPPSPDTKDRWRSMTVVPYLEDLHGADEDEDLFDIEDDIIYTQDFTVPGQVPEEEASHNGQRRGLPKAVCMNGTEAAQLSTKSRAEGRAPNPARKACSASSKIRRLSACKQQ
T1 sequence (Q7RTN6 1-431): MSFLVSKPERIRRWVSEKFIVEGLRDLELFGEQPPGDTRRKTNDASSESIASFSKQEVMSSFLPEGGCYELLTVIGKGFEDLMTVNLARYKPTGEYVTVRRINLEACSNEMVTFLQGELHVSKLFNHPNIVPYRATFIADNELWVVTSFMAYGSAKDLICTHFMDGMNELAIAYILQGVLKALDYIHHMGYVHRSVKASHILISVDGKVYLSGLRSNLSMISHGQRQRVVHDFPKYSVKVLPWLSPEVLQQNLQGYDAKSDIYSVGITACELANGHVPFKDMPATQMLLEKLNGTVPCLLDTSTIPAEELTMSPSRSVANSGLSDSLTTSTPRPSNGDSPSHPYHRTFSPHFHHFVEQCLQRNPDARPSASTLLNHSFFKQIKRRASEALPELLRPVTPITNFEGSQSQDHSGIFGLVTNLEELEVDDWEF
T1 sequence (Q9Y376 1-341 partner): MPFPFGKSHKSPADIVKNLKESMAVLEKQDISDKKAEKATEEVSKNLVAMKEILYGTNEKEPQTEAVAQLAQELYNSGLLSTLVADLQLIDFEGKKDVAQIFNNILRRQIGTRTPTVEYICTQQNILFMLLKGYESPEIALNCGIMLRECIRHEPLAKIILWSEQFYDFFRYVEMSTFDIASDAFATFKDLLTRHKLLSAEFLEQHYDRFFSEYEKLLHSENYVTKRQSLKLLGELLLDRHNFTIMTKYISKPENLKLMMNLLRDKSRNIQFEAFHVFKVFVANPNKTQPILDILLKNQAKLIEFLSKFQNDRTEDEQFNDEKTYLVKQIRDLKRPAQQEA
Briefly: in vitro LKB1 functional activity. The following applies: APA analogs. In kind it is biochemical.
Turning to `Cc1ccc(-c2cnc(N)c(C(=O)Nc3ccc([S@SP3](=O)(=O)CP(=O)(O)O)cc3)n2)cc1` [SU20668-0312, (((4-(3-amino-6-(p-tolyl)pyrazine-2-carboxamido)phenyl)sulfonyl)methyl)phosphonic acid], the “LKB1 % Act. Increase” value was “C (C=199-1000%)”.

Consider `Cc1ccc(-c2cnc(N)c(C(=O)Nc3ccc4c(c3)CNS4(=O)=O)n2)cc1` [SU20668-0288], for which the “LKB1 % Act. Increase” value is “D (D=<1000%)”.

Regarding `Cc1ccc(-c2cnc(N)c(C(=O)Nc3ccc(S(=O)(=O)Nc4cc(C)on4)cc3)n2)cc1` [SU20668-0467, 3-amino-N-(4-(N-(5-methylisoxazol-3-yl)sulfamoyl)phenyl)-6-p-tolylpyrazine-2-carboxamide], the “LKB1 % Act. Increase” value is reported as “C (C=199-1000%)”.

As to `CCO[P@@](C)(=O)CS(=O)(=O)c1ccc(NC(=O)c2nc(-c3ccc(C)cc3)cnc2N)cc1` [SU20668-0517, (R)-ethyl (4-(3-amino-6-p-tolylpyrazine-2-carboxamido)phenylsulfonyl)methyl(methyl)phosphinate], the “LKB1 % Act. Increase” value was “B (B=399-2000%)”.

Regarding `Cc1ccc(-c2cnc(N)c(C(=O)Nc3ccc(C(=O)O)nc3)n2)cc1` [SU20668-0300, 5-(3-amino-6-p-tolylpyrazine-2-carboxamido)picolinic acid], the “LKB1 % Act. Increase” value is on record as “D (D=<1000%)”.

Turning to `Cc1ccc(-c2cnc(N)c(C(=O)Nc3ccc(S(=O)(=O)CP(=O)(OC(C)C)OC(C)C)cc3)n2)cc1` [SU20668-0484, diisopropyl (4-(3-amino-6-p-tolylpyrazine-2-carboxamido)phenylsulfonyl)methylphosphonate], the “LKB1 % Act. Increase” value is given as “D (D=<1000%)”.

Consider `Cc1ccc(-c2cnc(N)c(C(=O)Nc3ccc(S(=O)(=O)CC(=O)O)cc3)n2)cc1` [SU20668-0310, 2-(4-(3-amino-6-p-tolylpyrazine-2-carboxamido)phenylsulfonyl)acetic acid], for which the “LKB1 % Act. Increase” value was “D (D=<1000%)”.

With `CCOP(=O)(O)CS(=O)(=O)c1ccc(NC(=O)c2nc(-c3ccc(C)cc3)cnc2N)cc1` [SU20668-0338, ethyl hydrogen (((4-(3-amino-6-(p-tolyl)pyrazine-2-carboxamido)phenyl)sulfonyl)methyl)phosphonate], the “LKB1 % Act. Increase” value is “D (D=<1000%)”.

`CC(=O)NS(=O)(=O)c1ccc(NC(=O)c2nc(-c3ccc4cc[nH]c4c3)cnc2N)cc1` [SU20668-0345, N-(4-(N-acetylsulfamoyl)phenyl)-3-amino-6-(1H-indol-6-yl)pyrazine-2-carboxamide]: the “LKB1 % Act. Increase” value is recorded as “C (C=199-1000%)”.

Take `CC(=O)NS(=O)(=O)c1ccc(NC(=O)c2nc(-c3cccc(N)c3)cnc2N)cc1` [SU20668-0350, N-(4-(N-acetylsulfamoyl)phenyl)-3-amino-6-(3-aminophenyl)pyrazine-2-carboxamide]: the “LKB1 % Act. Increase” value is “D (D=<1000%)”.

As for `Cc1ccc(-c2cnc(N)c(C(=O)Nc3ccc(S(=O)(=O)CC4CCO4)cc3)n2)cc1` (stereo not shown) [SU20668-0500, 3-amino-N-(4-(oxetan-2-ylmethylsulfonyl)phenyl)-6-p-tolylpyrazine-2-carboxamide], the “LKB1 % Act. Increase” value is “B (B=399-2000%)”.

Take `CC(=O)NS(=O)(=O)c1ccc(NC(=O)c2nc(-c3ccc(CN(C)C)cc3)cnc2N)cc1` [SU20668-0339, N-(4-(N-acetylsulfamoyl)phenyl)-3-amino-6-(4-((dimethylamino)methyl)phenyl)pyrazine-2-carboxamide]: the “LKB1 % Act. Increase” value is “C (C=199-1000%)”.

As for `CCOP(=O)(OCC)c1ccc(NC(=O)c2nc(-c3ccc(C)cc3)cnc2N)cc1` [SU20668-0211, diethyl 4-(3-amino-6-p-tolylpyrazine-2-carboxamido)phenylphosphonate], the “LKB1 % Act. Increase” value is listed as “D (D=<1000%)”.

With `CCOP(=O)(CS(=O)(=O)c1ccc(NC(=O)c2nc(-c3ccc(C(F)(F)F)cc3)cnc2N)cc1)OCC` [SU20668-0488, diethyl (4-(3-amino-6-(4-(trifluoromethyl)phenyl)pyrazine-2-carboxamido)phenylsulfonyl)methylphosphonate], the “LKB1 % Act. Increase” value is “D (D=<1000%)”.

In the case of `CCOP(=O)(NS(=O)(=O)c1ccc(NC(=O)c2nc(-c3ccc(C)cc3)cnc2N)cc1)OCC` [SU20668-0475, diethyl 4-(3-amino-6-p-tolylpyrazine-2-carboxamido)phenylsulfonylphosphoramidate], the “LKB1 % Act. Increase” value is “B (B=399-2000%)”.

As for `CC(=O)NS(=O)(=O)c1ccc(NC(=O)c2nc(-c3ccc(C)c(F)c3)cnc2N)cc1` [SU20668-0390, N-(4-(N-acetylsulfamoyl)phenyl)-3-amino-6-(3-fluoro-4-methylphenyl)pyrazine-2-carboxamide], the “LKB1 % Act. Increase” value is recorded as “D (D=<1000%)”.

As to `CC(=O)NS(=O)(=O)c1ccc(NC(=O)c2nc(-c3ccc(C(N)=O)cc3)cnc2N)cc1` [SU20668-0342, N-(4-(N-acetylsulfamoyl)phenyl)-3-amino-6-(4-carbamoylphenyl)pyrazine-2-carboxamide], the “LKB1 % Act. Increase” value is “D (D=<1000%)”.

Turning to `CCOP(=O)(CS(=O)(=O)c1ccc(NC(=O)c2nc(-c3ccc(C)cc3)cnc2N)cc1F)OCC` [SU20668-0482, diethyl (4-(3-amino-6-p-tolylpyrazine-2-carboxamido)-2-fluorophenylsulfonyl)methylphosphonate], the “LKB1 % Act. Increase” value was “D (D=<1000%)”.

With `CS(=O)(=O)c1ccc(NC(=O)c2nc(-c3ccc(S(C)(=O)=O)cc3)cnc2N)cc1` [SU20668-0317, methyl 3-amino-N,6-bis(4-(methylsulfonyl)phenyl)pyrazine-2-carboxamide], the “LKB1 % Act. Increase” value is recorded as “C (C=199-1000%)”.

Consider `CC(=O)NS(=O)(=O)c1ccc(NC(=O)c2nc(-c3cccc(C(N)=O)c3)cnc2N)cc1` [SU20668-0341, N-(4-(N-acetylsulfamoyl)phenyl)-3-amino-6-(3-carbamoylphenyl)pyrazine-2-carboxamide], for which the “LKB1 % Act. Increase” value is recorded as “D (D=<1000%)”.

With `COP(=O)(CS(=O)(=O)c1ccc(NC(=O)c2nc(-c3cc(F)ccc3Cl)cnc2N)cc1)OC` [SU20668-0449, dimethyl (4-(3-amino-6-(2-chloro-5-fluorophenyl)pyrazine-2-carboxamido)phenylsulfonyl)methylphosphonate], the “LKB1 % Act. Increase” value is “C (C=199-1000%)”.

Take `COP(=O)(CS(=O)(=O)c1ccc(NC(=O)c2nc(-c3ccc(S(C)(=O)=O)cc3)cnc2N)cc1)OC` [SU20668-0447, dimethyl (4-(3-amino-6-(4-(methylsulfonyl)phenyl)pyrazine-2-carboxamido)phenylsulfonyl)methylphosphonate]: the “LKB1 % Act. Increase” value was “D (D=<1000%)”.

For the compound `CCOP(=O)(OCC)C(C)S(=O)(=O)c1ccc(NC(=O)c2nc(-c3ccc(C)cc3)cnc2N)cc1` (stereo not shown) [SU20668-0505, diethyl 1-(4-(3-amino-6-p-tolylpyrazine-2-carboxamido)phenylsulfonyl)ethylphosphonate], the “LKB1 % Act. Increase” value is “A (A=>4000%)”.

Take `CC(=O)NS(=O)(=O)c1ccc(NC(=O)c2nc(-c3ccc(Cl)cc3)cnc2N)cc1` [SU20668-0391, N-(4-(N-acetylsulfamoyl)phenyl)-3-amino-6-(4-chlorophenyl)pyrazine-2-carboxamide]: the “LKB1 % Act. Increase” value was “D (D=<1000%)”.

For the compound `COP(=O)(OC)C(C)S(=O)(=O)c1ccc(NC(=O)c2nc(-c3ccc(C)cc3)cnc2N)cc1` (stereo not shown) [SU20668-0516, dimethyl 1-(4-(3-amino-6-p-tolylpyrazine-2-carboxamido)phenylsulfonyl)ethylphosphonate], the “LKB1 % Act. Increase” value is listed as “A (A=>4000%)”.

Take `Cc1ccc(-c2cnc(N)c(C(=O)Nc3ccc(P(=O)(O)O)cc3)n2)cc1` [SU20668-0196, 4-(3-amino-6-p-tolylpyrazine-2-carboxamido)phenylphosphonic acid]: the “LKB1 % Act. Increase” value is recorded as “C (C=199-1000%)”.

With `CCOP(=O)(CS(=O)(=O)c1ccc(NC(=O)c2nc(-c3cc(F)ccc3C#N)cnc2N)cc1)OCC` [SU20668-0471, diethyl (4-(3-amino-6-(2-cyano-5-fluorophenyl)pyrazine-2-carboxamido)phenylsulfonyl)methylphosphonate], the “LKB1 % Act. Increase” value is “D (D=<1000%)”.

Take `CNS(=O)(=O)c1ccc(NC(=O)c2nc(-c3ccc(C)cc3)cnc2N)cc1` [SU20668-0286, 3-amino-N-(4-(N-methylsulfamoyl)phenyl)-6-p-tolylpyrazine-2-carboxamide]: the “LKB1 % Act. Increase” value is “C (C=199-1000%)”.
